{"source": "BindingDB's records for doi:10.7270/Q2251GJ9", "about": "(The Scripps Research Institute Molecular Screening Center, 2007)", "note": "Structures can show the parent of a compound that is named as a salt.", "data": [{"biological_target": "Sphingosine 1-phosphate receptor 1 (Homo sapiens, UniProt P21453)", "sequence (P21453 whole entry)": "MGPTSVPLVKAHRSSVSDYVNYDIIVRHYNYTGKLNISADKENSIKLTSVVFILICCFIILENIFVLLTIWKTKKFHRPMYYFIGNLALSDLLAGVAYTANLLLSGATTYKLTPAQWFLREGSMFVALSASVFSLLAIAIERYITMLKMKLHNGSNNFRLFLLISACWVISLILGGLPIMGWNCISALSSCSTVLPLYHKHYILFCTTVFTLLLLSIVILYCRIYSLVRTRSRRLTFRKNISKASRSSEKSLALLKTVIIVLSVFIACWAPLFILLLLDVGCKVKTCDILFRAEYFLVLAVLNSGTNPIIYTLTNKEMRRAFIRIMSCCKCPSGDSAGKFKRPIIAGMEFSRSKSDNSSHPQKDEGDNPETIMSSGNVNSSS", "assay": "direct activation of human S1P1 – cell-based, agonist mode, 60K MLSMR set, dose response (AID 468)", "details": "not given", "units": {"EC50": "µM"}, "values": [{"smiles": "CCCCNc1cc(C)nc(NCc2ccccc2)n1", "note": "[2-N-benzyl-4-N-butyl-6-methylpyrimidine-2,4-diamine]", "EC50": 4.83}, {"smiles": "CCOC(=O)N1CCN(C(=O)C2CCN(c3ncnc4c3sc3cccc(F)c34)CC2)CC1", "note": "[4-[1-(9-fluorobenzothiopheno[3,2-d]pyrimidin-4-yl)isonipecotoyl]piperazine-1-carboxylic acid ethyl ester]", "EC50": 5.92}, {"smiles": "COC(=O)C1=CN(CCCN2CCCC2=O)C=C(C(=O)OC)C1c1ccccc1C(F)(F)F", "EC50": "> 95"}, {"smiles": "Cc1ccsc1C(=O)OCC(=O)c1cc(C)n(CC2CCCO2)c1C", "note": "(configuration not stated) [3-methyl-2-thiophenecarboxylic acid [2-[2,5-dimethyl-1-(2-oxolanylmethyl)-3-pyrrolyl]-2-oxoethyl] ester]", "EC50": 7.53}, {"smiles": "CCCC(=O)Nc1ccc(-c2nc3cc(C)ccc3o2)cc1", "note": "[MLS000061826]", "EC50": 5.96}, {"smiles": "Cc1ccc(-c2csc3ncnc(Sc4nnc(CN5CCCCCC5=O)o4)c23)cc1", "note": "[1-[[5-[5-(4-methylphenyl)thieno[2,3-d]pyrimidin-4-yl]sulfanyl-1,3,4-oxadiazol-2-yl]methyl]azepan-2-one]", "EC50": 2.35}, {"smiles": "COc1ccc(-c2nc(-c3ccc(Br)o3)no2)cc1OC", "note": "[3-(5-bromanylfuran-2-yl)-5-(3,4-dimethoxyphenyl)-1,2,4-oxadiazole]", "EC50": 7.98}, {"smiles": "Cc1ccnc(SCC(=O)Nc2sc3c(c2C#N)CCCC3)n1", "note": "[MLS000077260]", "EC50": 4.76}, {"smiles": "Nc1nonc1C(=O)NCCNCc1cc(Br)ccc1OCc1ccccc1F", "note": "[4-amino-N-[2-[[5-bromo-2-(2-fluorobenzyl)oxy-benzyl]amino]ethyl]furazan-3-carboxamide;hydrochloride]", "EC50": 8.07}, {"smiles": "CCc1oc2ccccc2c1C(=O)c1cc(Br)c(O)c(Br)c1", "EC50": 5.94}, {"smiles": "CCCCOC(=O)c1[nH]c2c(c1C)C(=O)CC(c1cc(OC)c(OC)c(OC)c1)C2", "note": "(configuration not stated)", "EC50": 4.19}, {"smiles": "O=C(Nc1nccs1)c1ccc(S(=O)(=O)NCC2CCCCC2)cc1", "note": "[4-(Cyclohexylmethyl-sulfamoyl)-N-thiazol-2-yl-benzamide]", "EC50": 8.02}, {"smiles": "CC(C)c1cc(C(F)(F)F)n2nc(C(=O)Nc3ccc4c(c3)OCO4)cc2n1", "note": "[5-Isopropyl-7-trifluoromethyl-pyrazolo[1,5-a]pyrimidine-2-carboxylic acid benzo[1,3]dioxol-5-ylamide]", "EC50": 2.6}, {"smiles": "CCOC(=O)Nc1ccc2c(c1)N(C(=O)CCN(C)C)c1ccccc1S2", "note": "[MLS000038082]", "EC50": 33.9}, {"smiles": "Clc1ccccc1C1=Nn2c(nnc2-c2ccncc2)SC1", "note": "[6-(2-chlorophenyl)-3-(4-pyridyl)-7H-[1,2,4]triazolo[3,4-b][1,3,4]thiadiazine]", "EC50": 3.48}, {"smiles": "c1ccc(CSc2nnc(-c3c[nH]c4ccccc34)o2)cc1", "EC50": 1.95}, {"smiles": "CCN(CC)C(=O)CS/C(=N/C#N)Nc1ccccc1F", "note": "[2-[[N-cyano-N'-(2-fluorophenyl)amidino]thio]-N,N-diethyl-acetamide]", "EC50": "> 95"}, {"smiles": "COc1ccc(-n2c(C)cc(C(=O)CSc3nnc(-c4cccs4)o3)c2C)cc1", "note": "[1-[1-(4-methoxyphenyl)-2,5-dimethyl-3-pyrrolyl]-2-[(5-thiophen-2-yl-1,3,4-oxadiazol-2-yl)thio]ethanone]", "EC50": 2.03}, {"smiles": "COc1ccc(-n2nnnc2S(=O)(=O)CC(=O)N2CCCCC2)cc1", "note": "[2-[1-(4-methoxyphenyl)tetrazol-5-yl]sulfonyl-1-piperidin-1-ylethanone]", "EC50": 5.25}, {"smiles": "CCc1c(C)nc2ncnn2c1NCCc1ccc(OC)cc1", "note": "[(6-Ethyl-5-methyl-[1,2,4]triazolo[1,5-a]pyrimidin-7-yl)-[2-(4-methoxy-phenyl)-ethyl]-amine]", "EC50": 8.3}, {"smiles": "Cc1nn(-c2nc3ccccc3s2)c(N)c1-c1ccccc1", "note": "[1-(1,3-benzothiazol-2-yl)-3-methyl-4-phenyl-1H-pyrazol-5-amine]", "EC50": 0.415}, {"smiles": "COC(=O)c1cc(NCc2ccccc2F)ccc1N1CCOCC1", "note": "[5-[(2-fluorobenzyl)amino]-2-morpholino-benzoic acid methyl ester]", "EC50": 8.9}, {"smiles": "O=C(c1cc(-c2ccc(O)cc2)on1)N1CCc2ccccc2C1", "note": "[4-[3-(3,4-dihydro-1H-isoquinolin-2-ylcarbonyl)-2H-1,2-oxazol-5-ylidene]cyclohexa-2,5-dien-1-one]", "EC50": 5.24}, {"smiles": "CCOC(=O)/C=C/S(=O)(=O)c1ccc(NC(C)=O)cc1", "EC50": "> 3"}, {"smiles": "Cc1ccc(-c2csc(N3CCC(NS(=O)(=O)c4ccc5c(c4)OCCO5)CC3)n2)cc1", "note": "[N-[1-[4-(4-methylphenyl)-1,3-thiazol-2-yl]piperidin-4-yl]-2,3-dihydro-1,4-benzodioxine-6-sulfonamide]", "EC50": 1.65}, {"smiles": "CC(=O)Nc1ccccc1OCC(=O)c1cc(C)n(Cc2cccs2)c1C", "note": "[MLS000056239]", "EC50": 0.202}, {"smiles": "CC(C)(C)SCCNS(=O)(=O)c1ccccc1", "note": "[MLS000112230]", "EC50": "> 95"}, {"smiles": "Cc1ccc(C(=O)c2cncc(Br)c2)cc1", "note": "[(5-bromanylpyridin-3-yl)-(4-methylphenyl)methanone]", "EC50": 9.76}, {"smiles": "O=C(c1ccc(F)cc1)C(CN1CCOCC1)c1ccccc1", "note": "(configuration not stated) [1-(4-fluorophenyl)-3-(4-morpholinyl)-2-phenyl-1-propanone;hydrochloride]", "EC50": 17.9}, {"smiles": "CNc1oc(-c2ccc(OCc3ccccc3)cc2)nc1C#N", "note": "[2-(4-benzoxyphenyl)-5-(methylamino)oxazole-4-carbonitrile]", "EC50": 3.21}, {"smiles": "CCOc1ccccc1OCCCCCc1c(C)n[nH]c1C", "note": "[MLS000043342]", "EC50": 1.56}, {"smiles": "COCCn1c(C)cc(C(=O)CSc2nnc(-c3cccnc3)n2-c2ccccc2F)c1C", "note": "[2-[[4-(2-fluorophenyl)-5-(3-pyridinyl)-1,2,4-triazol-3-yl]thio]-1-[1-(2-methoxyethyl)-2,5-dimethyl-3-pyrrolyl]ethanone]", "EC50": 1.87}, {"smiles": "CCOc1ccc(C(=O)Nc2ccc(Cl)cn2)cc1Cl", "note": "[3-chloranyl-N-(5-chloranylpyridin-2-yl)-4-ethoxy-benzamide]", "EC50": 5.51}, {"smiles": "CC(=O)c1c(C)[nH]c(C(=O)OCCCCN2C(=O)c3ccccc3C2=O)c1C", "note": "[4-acetyl-3,5-dimethyl-1H-pyrrole-2-carboxylic acid 4-(1,3-dioxo-2-isoindolyl)butyl ester]", "EC50": 2.04}, {"smiles": "O=C(Nc1ccc(Cl)cc1)N1CCC(c2nc(-c3ccc(F)cc3)no2)CC1", "note": "[4-[3-(4-Fluoro-phenyl)-[1,2,4]oxadiazol-5-yl]-piperidine-1-carboxylic acid (4-chloro-phenyl)-amide]", "EC50": 5.07}, {"smiles": "CCCc1ccc(Oc2c[nH]nc2-c2ccc(O)c(C)c2O)cc1", "note": "[SMR000024172]", "EC50": 12.9}, {"smiles": "CCCc1cc(C(=O)Nc2sc(C)c(CC)c2C#N)no1", "note": "[MLS000116385]", "EC50": 3.73}, {"smiles": "CC(C)OC(=O)CSc1nc(N)c(C#N)c(-c2cccs2)c1C#N", "note": "[2-[(6-amino-3,5-dicyano-4-thiophen-2-yl-2-pyridinyl)thio]acetic acid propan-2-yl ester]", "EC50": "> 10"}, {"smiles": "COc1ccc(-c2nc(-c3cccc(C)c3)no2)cc1OC", "note": "[5-(3,4-dimethoxyphenyl)-3-(3-methylphenyl)-1,2,4-oxadiazole]", "EC50": 1.48}, {"smiles": "CCc1ccc(-c2nc(-c3ccncc3)no2)cc1", "note": "[5-(4-ethylphenyl)-3-(4-pyridyl)-1,2,4-oxadiazole]", "EC50": 5.7}]}, {"biological_target": "Sphingosine 1-phosphate receptor 1 (Homo sapiens, UniProt P21453)", "assay": "direct activation of human S1P1 – cell-based, agonist mode, 60K MLSMR set, dose response (AID 468)", "details": "inactive by the depositor's call", "units": {"EC50": "µM"}, "values": [{"smiles": "O=C(C1CC1)N1CCc2cc(S(=O)(=O)NCC3COc4ccccc4O3)ccc21", "note": "(configuration not stated) [1-(cyclopropanecarbonyl)-N-(2,3-dihydro-1,4-benzodioxin-3-ylmethyl)-2,3-dihydroindole-5-sulfonamide]", "EC50": 14}, {"smiles": "COc1ccc(CNc2cc(C)nc3ncnn23)c(OC)c1", "note": "[(2,4-Dimethoxy-benzyl)-(5-methyl-[1,2,4]triazolo[1,5-a]pyrimidin-7-yl)-amine]", "EC50": 16.3}, {"smiles": "FC(F)(F)c1ccc(N2CCN(c3cc(-c4ccccc4)nc4ncnn34)CC2)nc1", "note": "[5-Phenyl-7-[4-(5-trifluoromethyl-pyridin-2-yl)-piperazin-1-yl]-[1,2,4]triazolo[1,5-a]pyrimidine]", "EC50": 31.9}, {"smiles": "Cc1ccc(Cl)cc1N1CCN(C(=O)C2CCN(c3nnc(-n4cccc4)s3)CC2)CC1", "note": "[MLS000119702]", "EC50": 34.4}, {"smiles": "O=C(Nc1nc(-c2nc3ccccc3s2)cs1)c1ccc(S(=O)(=O)N2CCOCC2)cc1", "note": "[MLS000087900]", "EC50": 17.6}, {"smiles": "COc1ccccc1-c1cc(C(=O)Nc2cc(C)nn2-c2ccccc2)no1", "note": "[5-(2-methoxyphenyl)-N-(3-methyl-1-phenyl-1H-pyrazol-5-yl)isoxazole-3-carboxamide]", "EC50": 47}, {"smiles": "CCCOc1ccc(S(=O)(=O)NCc2ccc(OC)cc2)cc1", "note": "[MLS000104592]", "EC50": 23.1}, {"smiles": "CCc1ccc(-c2nc(CSCC(=O)N3CCN(c4ccccn4)CC3)c(C)o2)cc1", "note": "[1-[({[2-(4-ethylphenyl)-5-methyl-1,3-oxazol-4-yl]methyl}thio)acetyl]-4-pyridin-2-ylpiperazine]", "EC50": 11.8}, {"smiles": "CCSc1nc(N2CCOCC2)c2c(c1C#N)CCCC2", "note": "[3-(ethylthio)-1-(4-morpholinyl)-5,6,7,8-tetrahydroisoquinoline-4-carbonitrile]", "EC50": 46.8}, {"smiles": "N#Cc1nc(COc2ccc(Cl)cc2Cl)oc1N1CCN(c2ccccc2)CC1", "note": "[2-[(2,4-dichlorophenoxy)methyl]-5-(4-phenyl-1-piperazinyl)-4-oxazolecarbonitrile]", "EC50": 13.9}, {"smiles": "Cc1nn(Cc2ccc(Cl)c(Cl)c2)c(C)c1NC(=O)c1cc(C2CC2)on1", "note": "[5-cyclopropyl-N-[1-(3,4-dichlorobenzyl)-3,5-dimethyl-pyrazol-4-yl]isoxazole-3-carboxamide]", "EC50": 10.6}, {"smiles": "Cc1ccc(S(=O)(=O)n2nc(C)c(Br)c2C)c(C)c1C", "note": "[4-bromanyl-3,5-dimethyl-1-(2,3,4-trimethylphenyl)sulfonyl-pyrazole]", "EC50": 88}, {"smiles": "CC(=O)Nc1ccc(S(=O)(=O)N2CCN(c3cccc(C)c3C)CC2)cc1", "note": "[MLS000115810]", "EC50": 15.4}, {"smiles": "Cc1onc(-c2ccccc2Cl)c1C(=O)Oc1cc(N)n(S(=O)(=O)c2ccc(F)cc2)n1", "note": "[3-(2-chlorophenyl)-5-methyl-4-isoxazolecarboxylic acid [5-amino-1-(4-fluorophenyl)sulfonyl-3-pyrazolyl] ester]", "EC50": 18.1}, {"smiles": "CCN(CC)C(=O)C1CCN(S(=O)(=O)c2ccc3oc4ccccc4c3c2)CC1", "note": "[1-(2-dibenzofuranylsulfonyl)-N,N-diethyl-4-piperidinecarboxamide]", "EC50": 31.7}, {"smiles": "O=S(=O)(CCSc1ccccn1)c1nc2ccccc2s1", "note": "[2-(2-pyridin-2-ylsulfanylethylsulfonyl)-1,3-benzothiazole]", "EC50": 10.4}, {"smiles": "Cc1cccc(N2CCN(C(=O)C3CCCN(S(=O)(=O)c4cccc5cccnc45)C3)CC2)c1C", "note": "(configuration not stated) [MLS000120299]", "EC50": 16.3}]}]}
